Laboratory results taken from PubChem BioAssay (NCI).
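Interpolation was linear, between the two tested concentrations surrounding the appropriate level; five concentrations were tested over 48 hours in 96-well plates. GI50 is the concentration that inhibits growth by half. TGI is the concentration that stops growth completely.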

What was measured:
Assay in all cases: growth of human tumour cells (NCI), 48 h
SK-MEL-2 melanoma = system: SK-MEL-2 melanoma
RPMI-8226 leukemia = system: RPMI-8226 leukemia
SNB-75 CNS = system: SNB-75 CNS
A498 renal = system: A498 renal
UACC-257 melanoma = system: UACC-257 melanoma
HL-60(TB) leukemia = system: HL-60(TB) leukemia
SK-OV-3 ovarian = system: SK-OV-3 ovarian
PC-3 prostate = system: PC-3 prostate
CCRF-CEM leukemia = system: CCRF-CEM leukemia
K-562 leukemia = system: K-562 leukemia
UO-31 renal = system: UO-31 renal
SR leukemia = system: SR leukemia
DU-145 prostate = system: DU-145 prostate
MOLT-4 leukemia = system: MOLT-4 leukemia
HOP-92 NSCLC = system: HOP-92 NSCLC
LOX IMVI melanoma = system: LOX IMVI melanoma
SW-620 colon = system: SW-620 colon
KM12 colon = system: KM12 colon
HT29 colon = system: HT29 colon
NCI-H23 lung = system: NCI-H23 lung
SK-MEL-5 melanoma = system: SK-MEL-5 melanoma
SK-MEL-28 melanoma = system: SK-MEL-28 melanoma
CAKI-1 renal = system: CAKI-1 renal
TK-10 renal = system: TK-10 renal
OVCAR-8 ovarian = system: OVCAR-8 ovarian
SN12C renal = system: SN12C renal
EKVX NSCLC = system: EKVX NSCLC
HCC-2998 colon = system: HCC-2998 colon
A549 NSCLC = system: A549 NSCLC
IGROV1 ovarian = system: IGROV1 ovarian
RXF 393 renal = system: RXF 393 renal
MALME-3M melanoma = system: MALME-3M melanoma
M14 melanoma = system: M14 melanoma
MCF7 breast = system: MCF7 breast
SF-295 CNS = system: SF-295 CNS
786-0 renal = system: 786-0 renal
MDA-MB-231 breast = system: MDA-MB-231 breast
SF-268 CNS = system: SF-268 CNS
HOP-62 NSCLC = system: HOP-62 NSCLC
COLO 205 colon = system: COLO 205 colon
T-47D breast = system: T-47D breast
OVCAR-3 ovarian = system: OVCAR-3 ovarian
NCI/ADR-RES ovarian = system: NCI/ADR-RES ovarian
SF-539 CNS = system: SF-539 CNS
OVCAR-5 ovarian = system: OVCAR-5 ovarian
MDA-MB-435 = system: MDA-MB-435
ACHN renal = system: ACHN renal
OVCAR-4 ovarian = system: OVCAR-4 ovarian
UACC-62 melanoma = system: UACC-62 melanoma
U251 CNS = system: U251 CNS
BT-549 breast = system: BT-549 breast
NCI-H226 lung = system: NCI-H226 lung
SNB-19 CNS = system: SNB-19 CNS
HCT-15 colon = system: HCT-15 colon
HS 578T breast = system: HS 578T breast
NCI-H522 lung = system: NCI-H522 lung
NCI-H460 lung = system: NCI-H460 lung

## Cc1ccc(NC(=O)c2[nH]c(SCCN(C)C)nc2-c2ccc(F)cc2)cc1C#Cc1cnc2cccnn12
SK-MEL-2 melanoma
  GI50: 1.35 µM
  TGI: 3.16 µM
RPMI-8226 leukemia
  GI50: 1.91 µM
  TGI: 6.05 µM
SNB-75 CNS
  GI50: 1.59 µM
  TGI: 2.99 µM
A498 renal
  GI50: 1.76 µM
  TGI: 3.32 µM
UACC-257 melanoma
  GI50: 1.88 µM
  TGI: 3.51 µM
HL-60(TB) leukemia
  GI50: 1.38 µM
  TGI: 3.14 µM
SK-OV-3 ovarian
  GI50: 1.92 µM
  TGI: 3.44 µM
PC-3 prostate
  GI50: 2.12 µM
  TGI: 4.89 µM
CCRF-CEM leukemia
  GI50: 2.08 µM
  TGI: 6.92 µM
K-562 leukemia
  GI50: 0.127 µM
  TGI: 1.55 µM
UO-31 renal
  GI50: 1.38 µM
  TGI: 2.79 µM
SR leukemia
  GI50: 0.46 µM
  TGI: 2.22 µM
DU-145 prostate
  GI50: 1.83 µM
  TGI: 3.34 µM
MOLT-4 leukemia
  GI50: 1.93 µM
  TGI: 4.83 µM
HOP-92 NSCLC
  GI50: 1.08 µM
  TGI: 2.73 µM

## CCOC(=O)c1sc2nc(-c3ccccc3)nn2c1CBr
LOX IMVI melanoma
  TGI: 3.17 µM
SW-620 colon
  TGI: 3.88 µM
KM12 colon
  TGI: 4.14 µM
RPMI-8226 leukemia
  TGI: 4.25 µM
HT29 colon
  TGI: 3.77 µM
SNB-75 CNS
  TGI: 3.69 µM
NCI-H23 lung
  TGI: 3.78 µM
UACC-257 melanoma
  TGI: 3.92 µM
HL-60(TB) leukemia
  TGI: 1.34 µM
SK-MEL-5 melanoma
  TGI: 3.49 µM
SK-MEL-28 melanoma
  TGI: 3.41 µM
CAKI-1 renal
  TGI: 2.83 µM
SK-OV-3 ovarian
  TGI: > 10 µM
PC-3 prostate
  TGI: 4.16 µM
TK-10 renal
  TGI: 4.47 µM
OVCAR-8 ovarian
  TGI: 4.03 µM
SN12C renal
  TGI: 3.21 µM
CCRF-CEM leukemia
  TGI: 0.642 µM
K-562 leukemia
  TGI: 1.96 µM
EKVX NSCLC
  TGI: > 10 µM
HCC-2998 colon
  TGI: > 10 µM
A549 NSCLC
  TGI: > 10 µM
IGROV1 ovarian
  TGI: > 10 µM
RXF 393 renal
  TGI: 4.07 µM
MALME-3M melanoma
  TGI: 4.94 µM
M14 melanoma
  TGI: 2.85 µM
MCF7 breast
  TGI: 3.78 µM
SR leukemia
  TGI: 1.51 µM
DU-145 prostate
  TGI: > 10 µM
SF-295 CNS
  TGI: > 10 µM
786-0 renal
  TGI: 2.95 µM
MDA-MB-231 breast
  TGI: 3.69 µM
MOLT-4 leukemia
  TGI: 1.18 µM
SF-268 CNS
  TGI: 4.19 µM
HOP-62 NSCLC
  TGI: > 10 µM
COLO 205 colon
  TGI: 3.73 µM
T-47D breast
  TGI: 5.71 µM

## c1ccc2cc(Cn3c[n+](Cc4ccc5ccccc5c4)c4ccccc43)ccc2c1
SW-620 colon
  GI50: 1.27 µM
  TGI: 2.75 µM
OVCAR-3 ovarian
  GI50: 0.927 µM
  TGI: 2.22 µM
KM12 colon
  GI50: 1.54 µM
  TGI: 3.15 µM
SK-MEL-2 melanoma
  GI50: 1.64 µM
  TGI: 3.14 µM
NCI/ADR-RES ovarian
  GI50: 16.6 µM
  TGI: 61.8 µM
A498 renal
  GI50: 1.08 µM
  TGI: 2.5 µM
UACC-257 melanoma
  GI50: 1.39 µM
  TGI: 2.97 µM
SK-MEL-5 melanoma
  GI50: 0.556 µM
  TGI: 1.86 µM
SK-MEL-28 melanoma
  GI50: 1.52 µM
  TGI: 3.11 µM
SK-OV-3 ovarian
  GI50: 1.67 µM
  TGI: 3.4 µM
SF-539 CNS
  GI50: 1.59 µM
  TGI: 3 µM
PC-3 prostate
  GI50: 1.1 µM
  TGI: 2.43 µM
A549 NSCLC
  GI50: 1.87 µM
  TGI: 3.88 µM
OVCAR-5 ovarian
  GI50: 1.46 µM
  TGI: 2.89 µM
MDA-MB-435
  GI50: 1.37 µM
  TGI: 2.74 µM
UO-31 renal
  GI50: 1.74 µM
  TGI: 4.62 µM
DU-145 prostate
  GI50: 1.51 µM
  TGI: 2.88 µM
ACHN renal
  GI50: 1.94 µM
  TGI: 4 µM
786-0 renal
  GI50: 1.52 µM
  TGI: 3.09 µM
MDA-MB-231 breast
  GI50: 1.1 µM
  TGI: 2.47 µM
OVCAR-4 ovarian
  GI50: 1.19 µM
  TGI: 2.61 µM
HOP-92 NSCLC
  GI50: 0.192 µM
  TGI: 1.57 µM
SF-268 CNS
  GI50: 1.31 µM
  TGI: 2.72 µM

## O=C(Cn1c2ccc(Br)cc2c2nc3ccccc3nc21)N/N=C/c1ccccc1
UACC-62 melanoma
  TGI: > 100 µM
SW-620 colon
  TGI: > 100 µM
OVCAR-3 ovarian
  TGI: > 100 µM
KM12 colon
  TGI: > 100 µM
SK-MEL-2 melanoma
  TGI: > 100 µM
NCI/ADR-RES ovarian
  TGI: > 100 µM
HT29 colon
  TGI: > 100 µM
SNB-75 CNS
  TGI: > 100 µM
NCI-H23 lung
  TGI: > 100 µM
U251 CNS
  TGI: > 100 µM
A498 renal
  TGI: > 100 µM
UACC-257 melanoma
  TGI: > 100 µM
SK-MEL-5 melanoma
  TGI: > 100 µM
SK-MEL-28 melanoma
  TGI: > 100 µM
CAKI-1 renal
  TGI: > 100 µM
BT-549 breast
  TGI: > 100 µM
SK-OV-3 ovarian
  TGI: > 100 µM
SF-539 CNS
  TGI: 53.6 µM
PC-3 prostate
  TGI: > 100 µM
TK-10 renal
  TGI: > 100 µM
OVCAR-8 ovarian
  TGI: > 100 µM
SN12C renal
  TGI: > 100 µM
K-562 leukemia
  TGI: > 100 µM
EKVX NSCLC
  TGI: > 100 µM
A549 NSCLC
  TGI: > 100 µM
OVCAR-5 ovarian
  TGI: > 100 µM
MDA-MB-435
  TGI: > 100 µM
UO-31 renal
  TGI: > 100 µM
IGROV1 ovarian
  TGI: > 100 µM
RXF 393 renal
  TGI: > 100 µM
M14 melanoma
  TGI: > 100 µM
MCF7 breast
  TGI: > 100 µM
SR leukemia
  TGI: > 100 µM
DU-145 prostate
  TGI: > 100 µM
ACHN renal
  TGI: > 100 µM
SF-295 CNS
  TGI: 84.8 µM
786-0 renal
  TGI: 94.8 µM
MDA-MB-231 breast
  TGI: > 100 µM
NCI-H226 lung
  TGI: > 100 µM
SNB-19 CNS
  TGI: > 100 µM
SF-268 CNS
  TGI: > 100 µM
HOP-62 NSCLC
  TGI: 97.9 µM
COLO 205 colon
  TGI: > 100 µM
T-47D breast
  TGI: > 100 µM

## CC(C)C1OC(=O)/C=C/C=C/C=C/C=C/C=C/CC(O)C(C)C(O)CC(O)CC(O)CC(O)CC(O)CC(O)CC(O)/C=C/C1C (stereo not drawn)
UACC-62 melanoma
  TGI: > 100 µM
SW-620 colon
  TGI: > 100 µM
OVCAR-3 ovarian
  TGI: > 100 µM
KM12 colon
  TGI: > 100 µM
SK-MEL-2 melanoma
  TGI: > 100 µM
NCI/ADR-RES ovarian
  TGI: > 100 µM
HCT-15 colon
  TGI: > 100 µM
RPMI-8226 leukemia
  TGI: > 100 µM
HT29 colon
  TGI: > 100 µM
SNB-75 CNS
  TGI: > 100 µM
NCI-H23 lung
  TGI: > 100 µM
U251 CNS
  TGI: > 100 µM
A498 renal
  TGI: > 100 µM
UACC-257 melanoma
  TGI: > 100 µM
HL-60(TB) leukemia
  GI50: 2.13 µM
SK-MEL-28 melanoma
  TGI: > 100 µM
SK-OV-3 ovarian
  TGI: > 100 µM
SF-539 CNS
  TGI: > 100 µM
PC-3 prostate
  TGI: > 100 µM
TK-10 renal
  TGI: > 100 µM
OVCAR-8 ovarian
  TGI: > 100 µM
CCRF-CEM leukemia
  GI50: 5.11 µM
  TGI: > 100 µM
K-562 leukemia
  TGI: > 100 µM
EKVX NSCLC
  TGI: > 100 µM
HCC-2998 colon
  TGI: > 100 µM
A549 NSCLC
  TGI: > 100 µM
OVCAR-5 ovarian
  TGI: > 100 µM
MDA-MB-435
  TGI: > 100 µM
UO-31 renal
  TGI: > 100 µM
IGROV1 ovarian
  TGI: > 100 µM
HS 578T breast
  TGI: > 100 µM
MALME-3M melanoma
  TGI: > 100 µM
M14 melanoma
  TGI: > 100 µM
MCF7 breast
  TGI: > 100 µM
SR leukemia
  TGI: > 100 µM
ACHN renal
  TGI: > 100 µM
SF-295 CNS
  TGI: > 100 µM
NCI-H522 lung
  TGI: > 100 µM
SNB-19 CNS
  TGI: > 100 µM
MOLT-4 leukemia
  TGI: > 100 µM
OVCAR-4 ovarian
  TGI: > 100 µM
HOP-92 NSCLC
  TGI: > 100 µM
SF-268 CNS
  TGI: > 100 µM
HOP-62 NSCLC
  TGI: > 100 µM
NCI-H460 lung
  TGI: > 100 µM
